From patent publication US4328334A, “11-Aza-10-deoxo-10-dihydroerythromycin A and derivatives thereof as well as a process for their preparation” (PLIVA Pharmaceutical and Chemical Works, priority 1979, dated 1982)
≈ marks a conversion by molar mass, not a printed value. Where two headings read alike, the source gives them in different places.

Assays:
[1] = test system: Staphylococcus epidermidis ATCC 12228; experiment: in vitro minimum inhibitory concentration, Staphylococcus epidermidis ATCC 12228; assay type: cell-based
[2] = test system: Bacillus cereus var. mycoides ATCC 11778; experiment: microbe, parasite or virus in culture; assay type: cell-based; details: ATCC11778, read-out: minimum inhibitory concentrations (MIC)
[3] = test system: Staphylococcus aureus ATCC 6538-P; experiment: in vitro minimum inhibitory concentration, Staphylococcus aureus ATCC 6538-P; assay type: cell-based
[4] = test system: Streptococcus faecalis ATCC 8043; experiment: in vitro minimum inhibitory concentration, Streptococcus faecalis ATCC 8043; assay type: cell-based; details: Enterococcus faecalis
[5] = test system: Bacillus subtilis ATCC 6633; experiment: in vitro minimum inhibitory concentration, Bacillus subtilis ATCC 6633; assay type: cell-based
[6] = test system: Micrococcus flavus ATCC 10240; experiment: in vitro minimum inhibitory concentration, Micrococcus flavus ATCC 10240; assay type: cell-based
Sarcina lutea ATCC 9341 = experiment: in vitro minimum inhibitory concentration, Sarcina lutea ATCC 9341; assay type: cell-based; details: Micrococcus luteus, ATCC9341, read-out: minimum inhibitory concentrations (MIC)
[7] = test system: Staphylococcus aureus ATCC 6538-P; experiment: stability in acid medium: MIC after exposure to 1 N HCl; assay type: cell-based; details: ATCC6538, pH 1.2, Staphylococcus aureus ATCC 6538-P
[8] = test system: Pseudomonas aeruginosa NCTC 10490; experiment: in vitro minimum inhibitory concentration, Pseudomonas aeruginosa NCTC 10490; assay type: cell-based
[9] = test system: Klebsiella pneumoniae ATCC 10031; experiment: in vitro minimum inhibitory concentration, Klebsiella pneumoniae ATCC 10031; assay type: cell-based
[10] = test system: Shigella flexneri II-1819/C; experiment: in vitro minimum inhibitory concentration, Shigella flexneri II-1819/C; assay type: cell-based; details: II1819/C, read-out: minimum inhibitory concentrations (MIC)
Protocol: In order to examine the antibacterial action, some new compounds were tested in vitro on a series of gram-positive and gram-negative micro-organisms. The results are shown in Table 1 as minimum inhibitory concentrations (MIC) in mcg/ml in comparision with erythromycin A erythromycin A oxime.

Salmonella panama = experiment: in vitro minimum inhibitory concentration, Salmonella panama; assay type: cell-based; details: Salmonella enterica, read-out: minimum inhibitory concentrations (MIC)
[11] = test system: Brucella bronchiseptica ATCC 4617; experiment: microbe, parasite or virus in culture; assay type: cell-based; details: Bordetella bronchiseptica, ATCC4617, read-out: minimum inhibitory concentrations (MIC)
[12] = test system: Corynebacterium xerosis NCTC 9755; experiment: in vitro minimum inhibitory concentration, Corynebacterium xerosis NCTC 9755; assay type: cell-based
[13] = test system: Escherichia coli ATCC 10536; experiment: in vitro minimum inhibitory concentration, Escherichia coli ATCC 10536; assay type: cell-based; details: ATCC10536, read-out: minimum inhibitory concentrations (MIC)
[14] = acute i.v. toxicity in albino mice (Litchfield-Wilcoxon); details: mouse, in vivo, iv; acute i.v., albino mice
[15] = pKb in dimethyl formamide-water; assay type: physicochemical; details: dmf (66% v/v)-water; dimethyl formamide (66% v/v)-water
[16] = ATCC12228, in vitro, Staphylococcus epidermidis ATCC 12228, read-out: minimum inhibitory concentrations (MIC)
[17] = ATCC6538, in vitro, Staphylococcus aureus ATCC 6538-P, read-out: minimum inhibitory concentrations (MIC)
[18] = ATCC8043, in vitro, Streptococcus faecalis ATCC 8043, read-out: minimum inhibitory concentrations (MIC)
[19] = ATCC6633, in vitro, Bacillus subtilis ATCC 6633, read-out: minimum inhibitory concentrations (MIC)
[20] = ATCC10240, in vitro, Micrococcus flavus ATCC 10240, read-out: minimum inhibitory concentrations (MIC)
[21] = exposure time 1/2 hour, 1 N HCl

Structure (SMILES) | MIC [1, 16] | MIC [2] | MIC [3, 17] | MIC [4, 18] | MIC [5, 19] | MIC [6, 20] | MIC (Sarcina lutea ATCC 9341) | MIC ([7]; exposure time 0 hours) | MIC [7, 21] | MIC ([7]; exposure time 1 hour, 1 N HCl) | MIC ([7]; exposure time 2 hours, 1 N HCl) | MIC ([7]; exposure time 3 hours, 1 N HCl) | MIC ([7]; exposure time 6 hours, 1 N HCl) | MIC [10] | MIC [11] | MIC [13] | pKa [15] | also measured
CC[C@H]1OC(=O)[C@H](C)[C@@H](O[C@H]2C[C@@](C)(OC)[C@@H](O)[C@H](C)O2)[C@H](C)[C@@H](O[C@@H]2O[C@H](C)C[C@H](N(C)C)[C@H]2O)[C@](C)(O)C[C@@H](C)CN(S(=O)(=O)c2ccc(C)cc2)[C@H](C)[C@@H](O)[C@]1(C)O [Compound VIII, N-(4-methyl-benzenesulfonyl)-11-aza-10-deoxo-10-dihydroerythromycin A] | 100 µg/mL (≈ 112 µM) | 50 µg/mL (≈ 56.2 µM) | 100 µg/mL (≈ 112 µM) | 20 µg/mL (≈ 22.5 µM) | 100 µg/mL (≈ 112 µM) | 20 µg/mL (≈ 22.5 µM) | 50 µg/mL (≈ 56.2 µM) | – | – | – | – | – | – | – | – | – | – | –
CC[C@H]1OC(=O)[C@H](C)[C@@H](O[C@H]2C[C@@](C)(OC)[C@@H](O)[C@H](C)O2)[C@H](C)[C@@H](O[C@@H]2O[C@H](C)C[C@H](N(C)C)[C@H]2O)[C@](C)(O)C[C@@H](C)C(=O)[C@H](C)[C@@H](O)[C@]1(C)O [E, erythromycin A] | – | 0.1 µg/mL (≈ 0.136 µM) | – | – | – | – | 0.05 µg/mL (≈ 0.0681 µM) | 0.5 µg/mL (≈ 0.681 µM) | 7.5 µg/mL (≈ 10.2 µM) | 10 µg/mL (≈ 13.6 µM) | 10 µg/mL (≈ 13.6 µM) | 10 µg/mL (≈ 13.6 µM) | 20 µg/mL (≈ 27.3 µM) | 25 µg/mL (≈ 34.1 µM) | 1 µg/mL (≈ 1.36 µM) | 25 µg/mL (≈ 34.1 µM) | – | MIC ([1]; Staphylococcus epidermidis, ATCC12228, read-out: minimum inhibitory concentrations (MIC)): 0.1 µg/mL (≈ 0.136 µM); MIC ([8]; Pseudomonas aeruginosa, NCTC10490, read-out: minimum inhibitory concentrations (MIC)): 50 µg/mL (≈ 68.1 µM); MIC ([9]; Klebsiella pneumoniae, ATCC10031, read-out: minimum inhibitory concentrations (MIC)): 5 µg/mL (≈ 6.81 µM); MIC ([3]; Staphylococcus aureus, ATCC6538, read-out: minimum inhibitory concentrations (MIC)): 0.5 µg/mL (≈ 0.681 µM); MIC ([4]; ATCC8043, read-out: minimum inhibitory concentrations (MIC)): 0.05 µg/mL (≈ 0.0681 µM); MIC ([5]; Bacillus subtilis, ATCC6633, read-out: minimum inhibitory concentrations (MIC)): 0.05 µg/mL (≈ 0.0681 µM); MIC (Salmonella panama): 50 µg/mL (≈ 68.1 µM); MIC ([12]; Corynebacterium xerosis, NCTC9755, read-out: minimum inhibitory concentrations (MIC)): 0.1 µg/mL (≈ 0.136 µM); MIC ([6]; Micrococcus flavus, ATCC10240, read-out: minimum inhibitory concentrations (MIC)): 0.05 µg/mL (≈ 0.0681 µM)
CC[C@H]1OC(=O)[C@H](C)[C@@H](O[C@H]2C[C@@](C)(OC)[C@@H](O)[C@H](C)O2)[C@H](C)[C@@H](O[C@@H]2O[C@H](C)C[C@H](N(C)C)[C@H]2O)[C@](C)(O)C[C@@H](C)C(=NO)[C@H](C)[C@@H](O)[C@]1(C)O [EO, erythromycin A oxime, reference compound] | 0.1 µg/mL (≈ 0.134 µM) | 0.1 µg/mL (≈ 0.134 µM) | 0.5 µg/mL (≈ 0.668 µM) | 0.05 µg/mL (≈ 0.0668 µM) | 0.1 µg/mL (≈ 0.134 µM) | 0.1 µg/mL (≈ 0.134 µM) | 0.05 µg/mL (≈ 0.0668 µM) | 0.1 µg/mL (≈ 0.134 µM) | 0.1 µg/mL (≈ 0.134 µM) | 0.1 µg/mL (≈ 0.134 µM) | 0.5 µg/mL (≈ 0.668 µM) | 0.5 µg/mL (≈ 0.668 µM) | 0.5 µg/mL (≈ 0.668 µM) | 50 µg/mL (≈ 66.8 µM) | 1 µg/mL (≈ 1.34 µM) | 25 µg/mL (≈ 33.4 µM) | – | MIC ([8]; NCTC10490, in vitro, Pseudomonas aeruginosa NCTC 10490, read-out: minimum inhibitory concentrations (MIC)): 50 µg/mL (≈ 66.8 µM); MIC ([9]; ATCC10031, in vitro, Klebsiella pneumoniae ATCC 10031, read-out: minimum inhibitory concentrations (MIC)): 5 µg/mL (≈ 6.68 µM); LD50 [14]: 74 mg/kg; MIC (Salmonella panama; in vitro, Salmonella panama): 50 µg/mL (≈ 66.8 µM); MIC ([12]; NCTC9755, in vitro, Corynebacterium xerosis NCTC 9755, read-out: minimum inhibitory concentrations (MIC)): 0.1 µg/mL (≈ 0.134 µM)
CC[C@H]1OC(=O)[C@H](C)[C@@H](O[C@H]2C[C@@](C)(OC)[C@@H](O)[C@H](C)O2)[C@H](C)[C@@H](O[C@@H]2O[C@H](C)C[C@H](N(C)C)[C@H]2OC(C)=O)[C@](C)(O)C[C@@H](C)CN(C(C)=O)[C@H](C)[C@@H](O)[C@]1(C)O [Example 5, 2',N-diacetyl-11-aza-10-deoxo-10-dihydroerythromycin A] | – | – | – | – | – | – | – | – | – | – | – | – | – | – | – | – | 6.7 | –
CCC(=O)O[C@H]1[C@H](O[C@@H]2[C@@H](C)[C@H](O[C@H]3C[C@@](C)(OC)[C@@H](O)[C@H](C)O3)[C@@H](C)C(=O)O[C@H](CC)[C@@](C)(O)[C@H](O)[C@@H](C)N(C(=O)CC)C[C@H](C)C[C@@]2(C)O)O[C@H](C)C[C@@H]1N(C)C [Example 6, 2',N-dipropionyl-11-aza-10-deoxo-10-dihydroerythromycin A] | – | – | – | – | – | – | – | – | – | – | – | – | – | – | – | – | 6.7 | –
